{
  "source": "patent US20250035641A1",
  "about": "“COMPOSITIONS AND METHODS RELATED TO PROTEIN LABELING” (The Chinese University of Hong Kong, priority 2023, published 2025)",
  "type_in_all_cases": "cell-based",
  "key": {"HTN-BRD4": {"molecular_target": "T1, HTN-BRD4 (Homo sapiens, UniProt O60885+P62942, F37V)", "T1 construct": "HaloTag fragment; expressed in transfected cells; host or cells: HEK293T", "T1 sequence (P62942 whole entry F37V, stated change not applied, other chains not shown, the tested form may be a part)": "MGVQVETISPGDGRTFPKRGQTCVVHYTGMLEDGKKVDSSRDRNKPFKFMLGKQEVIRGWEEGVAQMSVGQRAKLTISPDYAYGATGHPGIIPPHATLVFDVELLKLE", "assay": "IP-WB of HTN-BRD4 O-GlcNAcylation (RL2) in HEK293T cells co-expressing fOGT", "conditions": "for region of induced HTN-BRD4 O-GlcNAcylation: HTN-BRD4:fOGT=1:0.05, truncated/mutant constructs", "description": "We next assess their potency in inducing HTN-BRD4 O-GlcNAcylation in cell. […]\n(§1) For each IP reaction, 2.2×10^6 HEK293T cells were seed in 10 cm dish. After cells attached, transfection reagents and plasmids were prepared and added in DMEM. After 24 h transfection, media were replaced by fresh warm complete media with DMSO or probes. For washout study, after 4 h treatment, media with DMSO or OGTAC-4 (500 nM) were replaced by fresh media with DMSO or AP1867 (50 μM) for further incubation. After certain time of OGTACs treatment, cells were collected by cold PBS and lysed by 200 μL complete IP lysis buffer. The lysate was incubated on ice for 20 min, spun down at 14,000 RPM at 4° C. for 15 mins, and the supernatant were collected for bicinchoninic acid (BCA) assay and normalized to a final 2 mg/mL. For input, 20 μL of diluted sample was reacted with equal volume of 10 μM TMR ligand in IP lysis buffer and rotate gently at RT for 15 mins. The remaining samples were subjected to protein A/G magnetic beads (MedChemExpress, HY-K0202), which pre-binding with protein target protein antibody. For samples for LC-MS/MS or HTN-BRD4 mutant constructs. Halo-Trap Magnetic Agarose (Proteintech, otma) was used to incubate with protein lysates. After gentle rotation at 4° C. for at least 16 h, the beads were washed with IP lysis buffer and boiled in 40 μL 2×SDS-loading buffer (Biorad #1610747) for 5 mins to elute proteins from beads. Eluted samples were directly subjected into WB analysis.\n(§2) In general, cells (from 12 well plate) were lysed by 80 μl RIPA lysis buffer (Thermo Scientic 89901) supplemented with 20 μM OGA inhibitor (Thaimet G, Bidepharm BD571819) and 100X protease inhibitor (MedChemExpress, HY-K0010), incubated on ice for 20 min, spun down at 14,000 RPM at 4° C. for 15 mins, and the supernatant were collected for bicinchoninic acid (BCA) assay and normalizedeto a final 2 mg/mL concentration. About 30 μg of protein samples were loaded for sodium dodecyl sulfatepolyacrylamide gel electrophoresis (SDS-PADE) and blotted with indicated antibodies."}, "HTN-CK2α": {"molecular_target": "HTN-CK2α (Homo sapiens, UniProt P68400)", "sequence (P68400 with tags, fused parts or gaps)": "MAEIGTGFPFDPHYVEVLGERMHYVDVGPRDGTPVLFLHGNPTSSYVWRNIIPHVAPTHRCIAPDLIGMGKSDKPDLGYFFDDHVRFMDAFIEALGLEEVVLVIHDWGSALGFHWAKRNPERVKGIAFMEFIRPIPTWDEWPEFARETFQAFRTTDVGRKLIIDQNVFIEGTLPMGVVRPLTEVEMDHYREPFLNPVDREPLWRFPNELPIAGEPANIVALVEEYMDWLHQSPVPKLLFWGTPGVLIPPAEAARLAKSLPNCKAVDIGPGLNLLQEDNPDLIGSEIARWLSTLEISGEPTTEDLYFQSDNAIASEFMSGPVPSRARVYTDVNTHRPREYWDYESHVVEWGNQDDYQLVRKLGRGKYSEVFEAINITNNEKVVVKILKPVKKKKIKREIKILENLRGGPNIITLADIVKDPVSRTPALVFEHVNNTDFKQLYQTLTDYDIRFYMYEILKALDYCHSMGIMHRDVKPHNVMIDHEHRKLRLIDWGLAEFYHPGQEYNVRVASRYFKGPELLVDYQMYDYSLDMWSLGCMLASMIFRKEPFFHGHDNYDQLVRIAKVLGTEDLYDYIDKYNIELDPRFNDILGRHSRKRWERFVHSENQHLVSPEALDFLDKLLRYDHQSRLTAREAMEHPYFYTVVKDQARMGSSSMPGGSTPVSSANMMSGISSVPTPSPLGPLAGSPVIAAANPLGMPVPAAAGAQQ", "sequence (P62942+O15294 fused P62942:F37V partner)": "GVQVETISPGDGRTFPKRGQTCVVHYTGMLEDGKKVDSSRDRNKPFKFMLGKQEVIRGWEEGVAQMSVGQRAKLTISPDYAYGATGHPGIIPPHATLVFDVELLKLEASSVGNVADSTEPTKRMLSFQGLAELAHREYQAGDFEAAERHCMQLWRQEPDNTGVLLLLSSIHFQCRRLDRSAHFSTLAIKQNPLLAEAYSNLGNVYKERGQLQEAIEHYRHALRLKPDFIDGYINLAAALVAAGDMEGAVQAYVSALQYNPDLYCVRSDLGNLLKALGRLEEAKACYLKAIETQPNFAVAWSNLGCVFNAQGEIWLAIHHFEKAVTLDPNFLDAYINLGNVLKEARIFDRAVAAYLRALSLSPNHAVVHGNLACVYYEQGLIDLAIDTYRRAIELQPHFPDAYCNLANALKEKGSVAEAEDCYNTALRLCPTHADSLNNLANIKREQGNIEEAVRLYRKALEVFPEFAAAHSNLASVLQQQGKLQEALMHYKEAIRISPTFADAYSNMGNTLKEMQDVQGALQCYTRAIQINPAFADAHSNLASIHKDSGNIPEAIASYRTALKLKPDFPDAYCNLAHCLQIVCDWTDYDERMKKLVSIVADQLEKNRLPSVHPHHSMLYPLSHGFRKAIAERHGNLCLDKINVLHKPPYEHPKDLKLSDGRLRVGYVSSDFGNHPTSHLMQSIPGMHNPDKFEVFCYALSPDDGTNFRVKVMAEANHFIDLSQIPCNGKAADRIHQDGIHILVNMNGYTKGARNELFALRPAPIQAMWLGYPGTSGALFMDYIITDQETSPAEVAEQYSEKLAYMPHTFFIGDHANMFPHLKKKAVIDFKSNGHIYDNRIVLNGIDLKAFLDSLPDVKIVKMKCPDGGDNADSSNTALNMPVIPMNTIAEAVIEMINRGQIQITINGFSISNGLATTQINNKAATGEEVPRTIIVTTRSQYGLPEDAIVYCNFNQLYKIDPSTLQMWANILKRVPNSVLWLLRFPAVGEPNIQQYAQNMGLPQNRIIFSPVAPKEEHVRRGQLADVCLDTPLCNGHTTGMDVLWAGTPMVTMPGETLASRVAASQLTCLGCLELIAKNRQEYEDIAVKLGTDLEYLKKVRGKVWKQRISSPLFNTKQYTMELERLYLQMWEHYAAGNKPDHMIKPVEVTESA", "assay": "Immunoblot of HTN-CK2α O-GlcNAcylation in HEK293T cells co-expressing fOGT", "text": "Ck2α is a well-studied OGT substrate.^17,25 Its Ser347 is conservatively O-GlcNAcylated and this modification was reported to affect its kinase activity.^16,17 We first co-expressed HTN-Ck2α and fOGT in HEK293T cells at different ratio and found the basal O-GlcNAcylation level of HTN-Ck2α was higher than what we detected in the case of HTN-BRD4. Therefore, a lower ratio of fOGT expression (1:100) was selected for the assessment of OGTAC potency (FIG. 9). […] The induction of specific O-GlcNAcylation on HTN-Ck2α was further confirmed by mass-shift assay. […] To validate the direct binding to both fOGT and HTN-Ck2α is critical, we exploited AP 1867 and rhodamine ligand, which bind to fOGT and HTN-Ck2α respectively, to co-treat with OGTAC-1.\nDuring immunoblotting study, we noticed that even for whole cell lysate (WCL), RL2 antibody band (green) and HTN-CK2α protein band (red) are perfectly overlapped and clearly distinguishable from other bands on blot (FIG. 6B). We assessed the OGTAC treatment effects by quantifying the RL2 signal that is overlapping with HTN-Ck2α in WCL, and found they are corresponding with the results achieved by IP-WB method (FIG. 6C). Therefore, we quantify the intensity of RL2 band that overlapping with HTN-CK2α level instead of IP CK2α in later study.\nas §1, with “analysis. To get stronger signal of RL2, we used anti-mouse-HRP (Cell signaling, #7076) as secondary antibody for RL2 and anti-rabbit-DyLight 488 (Invitrogen, #35552) as secondary antibody for total target proteins.” for “analysis.”\nas §2"}, "[1]": {"system": "cellular global O-GlcNAc level", "assay": "Global (pan-RL2) O-GlcNAc level by immunoblot", "text": "After illustrating the potency and generality of the OGTAC strategy, we then assessed its specificity towards the global O-GlcNAc proteome. We quantified the total pan-O-GlcNAc level (except for the specific band for target POI) using immunoblotting. For well-validated OGT substrates such as CK2α relatively low fOGT protein amount is sufficient to facilitate the inducing effect of our OGTAC-1. […] HTN-BRD4:fOGT=1:0.01 condition is not sufficient for OGTAC to exert inducing effects even though ternary complex was formed (FIG. 15). We hypothesize that an optimal threshold of OGT protein levels is required for efficient O-GlcNAc transfer to BRD4. To address the trade-off between potency and specificity on BRD4, we developed a truncated fOGT system. The tetratricopeptide repeat (TPR) domain of fOGT is responsible for substrate recognition; truncation of TPR domain can reduce its activity towards protein substrates. We therefore constructed and compared several truncated fOGT (tfOGT) plasmids.\nas §2"}},
  "note": "Entries after “also recorded” stand apart in the source; their conditions may differ.",
  "data": [
    {"smiles": "CC[C@H](C(=O)N1CCCC[C@H]1C(=O)O[C@H](CCc1ccc(OC)c(OC)c1)c1cccc(OCC(=O)NCCOCCOCCCCCCCl)c1)c1cc(OC)c(OC)c(OC)c1", "note": "[OGTAC-1, (R)-1-(3-(2-((2-(2-((6-chlorohexyl)oxy)ethoxy)ethyl)amino)-2-oxoethoxy)phenyl)-3-(3,4-dimethoxyphenyl)propyl (S)-1-((S)-2-(3,4,5-trimethoxyphenyl)butanoyl) piperidine-2-carboxylate]", "values": [
      {"measurement": "efficacy as O-GlcNAcylation inducer", "setting": "HTN-BRD4", "result": "submicromolar efficacy"},
      {"measurement": "fold increase of RL2 signal of BRD4", "setting": "HTN-BRD4; 640 nM, 2 h", "result": 2.5, "unit": "fold"},
      {"measurement": "fold increase of RL2 signal of BRD4", "setting": "HTN-BRD4; 640 nM, 4 h", "result": "around 2.8 fold"},
      {"measurement": "HTN-BRD4 O-GlcNAcylation inducing potency", "setting": "HTN-BRD4; 5 μM, 4 h", "result": "best O-GlcNAcylation inducing potency among three OGTACs; also recorded: outstanding potency"},
      {"measurement": "concentration from which inducing effect declined (hook effect)", "setting": "HTN-BRD4; 4 h", "result": 1.6, "unit": "µM"},
      {"measurement": "region of induced HTN-BRD4 O-GlcNAcylation", "setting": "HTN-BRD4", "result": "C-terminal region (S1367-F1224)"},
      {"measurement": "time at which induction of HTN-CK2α O-GlcNAcylation happened", "setting": "HTN-CK2α; 250 nM", "result": "≤ 4", "unit": "h"},
      {"measurement": "time of peak induction of HTN-CK2α O-GlcNAcylation", "setting": "HTN-CK2α; 250 nM", "result": 8, "unit": "h"},
      {"measurement": "fold increase of O-GlcNAcylation on HTN-CK2α, whole cell lysate WB", "setting": "HTN-CK2α; 500 nM and 1 μM", "result": "higher fold increase of O-GlcNAcylation"},
      {"measurement": "concentration of peak induction of HTN-CK2α O-GlcNAcylation", "setting": "HTN-CK2α; 24 h treatment", "result": 1, "unit": "µM"},
      {"measurement": "HTN-CK2α O-GlcNAcylation inducing effect among OGTAC-1/2/3", "setting": "HTN-CK2α; IP-WB, fOGT ratio 1:100", "result": "prevailed among 3 OGTACs"},
      {"measurement": "cellular global O-GlcNAc level", "setting": "[1]; 125 nM, HTN-CK2α:fOGT=1:0.01", "result": "not significantly changed"},
      {"measurement": "pan-RL2 level", "setting": "[1]; HTN-BRD4:fOGT system, dose-response, 4 h", "result": "not affected"}
    ]},
    {"smiles": "CC[C@H](C(=O)N1CCCC[C@H]1C(=O)O[C@H](CCc1ccc(OC)c(OC)c1)c1cccc(OCC(=O)NCCCCCCNC(=O)C[C@@H]2N=C(c3ccc(Cl)cc3)c3c(sc(C)c3C)-n3c(C)nnc32)c1)c1cc(OC)c(OC)c(OC)c1", "note": "[OGTAC-4, (R)-1-(3-(2-((6-(2-((S)-4-(4-chlorophenyl)-2,3,9-trimethyl-6H-thieno[3,2-f[]8 1,2,4]triazolo[4,3-a][1,4]diazepin-6-yl)acetamido)hexyl)amino)-2-oxoethoxy)phenyl)-3-(3,4-dimethoxyphenyl)propyl (S)-1-((S)-2-(3,4,5-trimethoxyphenyl)butanoyl)piperidine-2-carboxylate]", "values": [
      {"measurement": "efficacy as O-GlcNAcylation inducer", "setting": "HTN-BRD4", "result": "submicromolar efficacy"},
      {"measurement": "time at which O-GlcNAcylation of HTN-BRD4 was induced", "setting": "HTN-BRD4; 640 nM", "result": "≤ 2", "unit": "h"},
      {"measurement": "time of peak induction of HTN-BRD4 O-GlcNAcylation", "setting": "HTN-BRD4; 640 nM, longest time point", "result": 24, "unit": "h"},
      {"measurement": "lowest concentration promoting BRD4 O-GlcNAcylation and ternary complex", "setting": "HTN-BRD4; 4 h, 3 nM conducted once", "result": 3, "unit": "nM"},
      {"measurement": "O-GlcNAcylation inducing effect on HTN-BRD4", "setting": "HTN-BRD4; HTN-BRD4:fOGT=1:0.01 system", "result": "No O-GlcNAcylation inducing effect"},
      {"measurement": "region of induced HTN-BRD4 O-GlcNAcylation", "setting": "HTN-BRD4", "result": "C-terminal region (S1367-F1224)"},
      {"measurement": "global O-GlcNAc level", "setting": "[1]; 0tfOGT:HTN-BRD4 system", "result": "without disruption of global O-GlcNAc level"},
      {"measurement": "global O-GlcNAc levels during reversibility study", "setting": "[1]; HTN-BRD4:0tfOGT, washout study", "result": "remained unchanged"}
    ]}
  ]
}
